Laboratory results: patent US20230050846A1, “TREATMENT OF HEPATIC AND CARDIOVASCULAR DISORDERS” (LIFESEARCH, priority 2019, published 2023)
Peptide text beside a SMILES is read from it. * marks the point of attachment. Palmitoyl = CCCCCCCCCCCCCCCC(=O)*

Assays:
wild-type C57B/L6J mice = assay: Biliary lipid secretions, gallbladder cannulation, wild-type mice; type: in vivo, mouse; conditions: for bile flux / biliary secretion of bile acids / biliary secretion of cholesterol: C57BL/6 mice, vs PBS or SCR
Protocol: Wild-type C57B/L6J male mice were purchased from Janvier Labs (Le Genest Saint Isle, France). LDLR knock-out mice (males, C57B/L6J background) were obtained from The Jackson Laboratory (Bar Harbor, Me., USA). Mice were caged in animal rooms under specific pathogen free conditions at the animal facility of Rangueil (Anexplo platform, US006, Toulouse, France) with a light/dark schedule of 12 h/12 h and were fed ad libitum with a normal chow diet (#V1535 R/M-H, Ssniff, Germany). All animal experimental procedures were conducted in accordance with institutional guidelines on animal experimentation approved by the local ethical committee of animal care and are conformed to the guidelines from Directive 2010/63/EU of the European Parliament on the protection of animals used for scientific purposes or the NIH guideline.
Depending of experiments, 8 weeks old mice were intraperitoneally injected with PBS, the peptide of formula (I), the peptide of formula (II) and SCR. Details of peptide use, dose and mode of administration and time course are specified in the description of FIG. 11. Given the short elimination half-life of the peptide of formula (I), osmotic pumps were also used to insure a continuous delivery for 14 days. Briefly, 200 μL osmotic pump were filled with 10 mg/mL of the peptide of formula (I) in PBS and were implanted subcutaneously into the mice according to the manufacturer's instructions (Alzet®, model pump #2002), to insure the peptide of formula (I) release at an estimated rate of 0.5 μL/h, which corresponds to an estimated amount of delivery of 5 mg of the peptide of formula (I) per kilogram of body weight per day (5 mg/kg BW/day). Following treatments, mice were fasted for 2 h and were then anesthetized by intra-peritoneal injection of ketamine and xylazine hydrochloride. The common bile duct was ligated close to the duodenum and the gallbladder was punctured and cannulated with a polyethylene-10 catheter. After 30 min of stabilization, newly secreted bile was collected for 30 min. During bile collection, body temperature was stabilized using a temperature mattress. Bile flow (expressed in μL/min/100 g of body weight) was determined gravimetrically assuming a density of 1 g/mL for bile. At the end of experiment, blood was collected and mice were sacrificed by cervical dislocation.
For bile acid analysis, 1 μL of bile samples was diluted with 99 μL of milliQ water then incubated with the work reagent (6 mg NAD, 0.5 M hydrazine hydrate buffer, 0.05 M Na-pyrophosphate) for 4 min. The mix was then incubated with a start reagent (0.03 M Tris-EDTA; 0.3 U/mL 3-alpha-OH steroid dehydrogenase) and measured for 30 min, under excitation of 340/330 nm and emission of 440/420 nm. For phospholipid analysis, 1 μL of bile samples was diluted with 49 μL of milliQ water then incubated with the work reagent (100 mM MOPS, pH 8; 0.55 mM HVA; 20 mM CaCl; 11 U/mL Phospholipase-D; 1.66 U/mL Peroxidase; 0.1% Triton X-100) for 4 min. The mix was then incubated with a start reagent (1 M MOPS, pH 8, 50 U/mL Choline oxidase) and measured for 67.5 min, under excitation of 340/330 and emission of 440/40. For cholesterol analysis, 1 μL of bile samples was diluted with 29 μL of milliQ water then was incubated with the work reagent (100 mM MOPS, pH 8, 0.25 mM HVA; 0.1% Triton X-100) for 4 min. The mix was then incubated with a start reagent (0.1 M MOPS, pH 8, 0.06 U/mL cholesterol oxidase, 0.15 U/mL cholesterol esterase, 0.45 U/mL Peroxidase, 0.06 mM Taurocholate) and measured for 45 min, under excitation of 340/330 nm and emission of 440/420 nm. Secretion values of bile acids, phospholipids and cholesterol were calculated by multiplying concentration and bile flow values, and expressed as nmol/min/100 g body weight (BW).

HepG2 cells = assay: HDL endocytosis assay in hepatocytes; type: cell-based, human; conditions: 1 μM; HDL-Alexa568 50 μg/mL, 25 min; abolished by IF1 1 μM
Protocol: HepG2 cells were seeded on 96-well plates at 50,000 cells/well. HDL3 (d 1.12-1.21) were isolated from plasma of healthy human donors and referred to as HDL. HDL was fluorescently labeled with AlexaFluor®568 dye (A10238, Thermofisher Scientific) according the instructions of manufacturer. 1 h30 before the assay, the cells were serum starved for 1 h30 in order to stabilize nucleotide secretion. Cells were incubated with inhibitors (H49K, 1 μM) for 10 min before treatment with the different peptides (1 μM) or apoA-I (10 μg/ml) purified from human plasma. 5 min after peptide treatment, endocytosis was initiated by 50 μg/mL of AlexaFluor568®-labelled HDL. The same experiment was performed with a […] excess of unlabelled HDL (2.5 mg/mL) to determine the nonspecific fluorescence signal. After 25 min at 37° C., cells were then washed in serum-free DMEM and extracellular membrane-bound HDL was disassociated by incubating cells at 4° C. in serum-free DMEM for 90 min. Following washes, cells were lysate in NaOH 0.1M SDS 1% during 2 h, lysates were transferred in a black 96-wells plate and fluorescence was recorded at 568 nm (Varioscan flash). Fluorescence for each condition was substrate with the value obtained in unlabelled HDL condition, and results were expressed as the fold change as compared with the basal condition (untreated cells).

[1] = continuous delivery (osmotic pump, sc) 14 days, 5 mg/kg BW/day

Compound: Ac-RGAGSIREAGGAFGKREQAEEERYFRAQSRE-NH2 [peptide of formula (I), CH3CO-[SEQ ID NO: 1]-NH2]
- bile flux (wild-type C57B/L6J mice; intraperitoneal bolus 25 mg/kg): significant increase
- biliary secretion of bile acids (wild-type C57B/L6J mice; intraperitoneal bolus 25 mg/kg): significant increase
- biliary secretion of cholesterol (wild-type C57B/L6J mice; intraperitoneal bolus 25 mg/kg): significant increase
- biliary flux and biliary lipid secretion, compared with the 25 mg/kg dose (wild-type C57B/L6J mice; bolus injection 12 mg/kg): less efficient
- biliary cholesterol secretion (wild-type C57B/L6J mice; [1]): stimulated
- biliary flux (wild-type C57B/L6J mice; [1]): stimulated
- time following injection up to which the effect on bile flux and biliary secretion is maintained (wild-type C57B/L6J mice; intraperitoneal bolus 25 mg/kg): up to 4 h
- effect on HDL endocytosis (HepG2 cells): stimulated

Compound: CCCCCCCCCCCCCCCC(=O)NCCCC[C@H](NC(=O)[C@H](CCC(=O)O)NC(=O)[C@H](CCCNC(=N)N)NC(=O)[C@H](CO)NC(=O)[C@H](CCC(N)=O)NC(=O)[C@H](C)NC(=O)[C@H](CCCNC(=N)N)NC(=O)[C@H](Cc1ccccc1)NC(=O)[C@H](Cc1ccc(O)cc1)NC(=O)[C@H](CCCNC(=N)N)NC(=O)[C@H](CCC(=O)O)NC(=O)[C@H](CCC(=O)O)NC(=O)[C@H](CCC(=O)O)NC(=O)[C@H](C)NC(=O)[C@H](CCC(N)=O)NC(=O)[C@H](CCC(=O)O)NC(=O)[C@H](CCCNC(=N)N)NC(=O)[C@H](CCCCN)NC(=O)CNC(=O)[C@H](Cc1ccccc1)NC(=O)[C@H](C)NC(=O)CNC(=O)CNC(=O)[C@H](C)NC(=O)[C@H](CCC(=O)O)NC(=O)[C@H](CCCNC(=N)N)NC(=O)[C@@H](NC(=O)[C@H](CO)NC(=O)CNC(=O)[C@H](C)NC(=O)CNC(=O)[C@H](CCCNC(=N)N)NC(C)=O)[C@@H](C)CC)C(N)=O [peptide of formula (II), CH3CO-[SEQ ID NO: 1]-K-[palmitoyl]-NH2] (Ac-RGAGSIREAGGAFGKREQAEEERYFRAQSREK(Palmitoyl)-NH2)
- bile flux (wild-type C57B/L6J mice; intraperitoneal bolus 25 mg/kg): stimulated
- biliary secretion of bile acids (wild-type C57B/L6J mice; intraperitoneal bolus 25 mg/kg): stimulated
- biliary secretion of cholesterol (wild-type C57B/L6J mice; intraperitoneal bolus 25 mg/kg): stimulated
- effect on HDL endocytosis (HepG2 cells): stimulated
